Where a name gives a salt, the structure may show the parent alone.
Key:
[1] = target: IRAK4 (Homo sapiens (Human), UniProt Q9NWZ3); assay: IRAK4 Inhibition Assay; format: biochemical; conditions: ATP 500 μM; IRAK4 0.6 nM
In short: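 Mobility-shift readout: phosphorylated and unphosphorylated fluorescent peptide (1.5 μM) resolved by electrophoresis after a 60 min room-temperature reaction stopped with EDTA. Reaction holds 0.6 nM IRAK4, 500 μM ATP and 1.6% DMSO in HEPES pH 7.2/MgCl2/Brij 35/DTT buffer; percent inhibition set against vehicle and no-enzyme controls.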

[2] = Caco-2 Permeability Assay; format: in vitro ADME; conditions: human, Caco-2, test compound 3 μM
In short: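 Bidirectional permeability measured over 2 h at 37° C, compound dosed at 3 μM in the donor compartment (apical for absorptive, basolateral for secretive) with plain buffer as receiver.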

[3] = test system: Human whole blood stimulated with a TLR2 agonist (lipoteichoic acid), IL-6 levels; assay: IRAK4 Whole Blood Assay; format: cell-based; conditions: Homo sapiens, lipoteichoic acid 10 μg/mL
In short: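 ACD-A-anticoagulated human whole blood was preincubated with compounds for 60 min at 37 °C under 5% CO2. It was then stimulated with 10 μg/mL lipoteichoic acid (final) in RPMI for 5 h. IL-6 in plasma supernatants was measured by flow cytometry bead assay.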

Chain of IRAK4 (Q9NWZ3 whole entry, species assumed): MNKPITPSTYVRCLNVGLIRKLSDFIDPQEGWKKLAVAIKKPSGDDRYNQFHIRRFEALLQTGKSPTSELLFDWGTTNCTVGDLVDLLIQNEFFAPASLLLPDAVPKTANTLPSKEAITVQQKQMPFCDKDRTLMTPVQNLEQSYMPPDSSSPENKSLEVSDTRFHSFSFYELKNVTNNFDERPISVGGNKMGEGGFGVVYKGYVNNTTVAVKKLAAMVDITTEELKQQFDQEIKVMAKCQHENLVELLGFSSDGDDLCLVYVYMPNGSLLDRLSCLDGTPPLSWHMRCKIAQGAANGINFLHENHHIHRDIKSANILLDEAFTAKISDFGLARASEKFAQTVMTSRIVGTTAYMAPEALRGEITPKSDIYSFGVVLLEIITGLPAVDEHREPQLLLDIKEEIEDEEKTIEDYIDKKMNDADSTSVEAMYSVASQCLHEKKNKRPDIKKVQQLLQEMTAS

Row | Compound | IC50 [1] [nM] | Papp at 2 h, 3 µM [2] [×10⁻⁶ cm/s] | EC50 [3] [nM]
1 | CC(C)Nc1cc(-n2ncc3cc(C#N)cnc32)ncc1-c1cn(CCc2cccnc2)nn1 [Example 119, 1-(4-(isopropylamino)-5-(1-(2-(pyridin-3-yl)ethyl)-1H-1,2,3-triazol-4-yl)pyridin-2-yl)-1H-pyrazolo[3,4-b]pyridine-5-carbonitrile] | 2 | 5 | 430
2 | CC(C)Nc1cc(-n2ncc3cc(C#N)cnc32)ncc1-c1cn(CCc2ccncc2)nn1 [Example 120, 1-(4-(isopropylamino)-5-(1-(2-(pyridin-4-yl)ethyl)-1H-1,2,3-triazol-4-yl)pyridin-2-yl)-1H-pyrazolo[3,4-b]pyridine-5-carbonitrile] | 1 | 7.4 | 200
3 | CCOCCn1cc(-c2cnc(-n3ncc4cc(C#N)cnc43)cc2NC(C)C)nn1 [Example 122, 1-(5-(1-(2-ethoxyethyl)-1H-1,2,3-triazol-4-yl)-4-(isopropylamino)pyridin-2-yl)-1H-pyrazolo[3,4-b]pyridine-5-carbonitrile] | 6 | 32.2 | 590
4 | CC(C)Nc1cc(-n2ncc3cc(C#N)cnc32)ncc1-c1cn(CC2CCO2)nn1 (stereo not drawn) [Example 123, 1-(4-(isopropylamino)-5-(1-(oxetan-2-ylmethyl)-1H-1,2,3-triazol-4-yl)pyridin-2-yl)-1H-pyrazolo[3,4-b]pyridine-5-carbonitrile] | 5 | 24.4 | 240
5 | CC(C)Nc1cc(-n2cnc3cc(C#N)cnc32)ncc1-c1cn(C2CN(C)C2)nn1 [Example 152, 3-(4-(isopropylamino)-5-(1-(1-methylazetidin-3-yl)-1H-1,2,3-triazol-4-yl)pyridin-2-yl)-3H-imidazo[4,5-b]pyridine-6-carbonitrile] | 4 | 15.8 | 750
6 | CC(=O)N1CCCC(n2cc(-c3cnc(-n4ncc5cc(C#N)cnc54)cc3NC(C)C)nn2)C1 (stereo not drawn) [Example 160, 1-(5-(1-(1-acetylpiperidin-3-yl)-1H-1,2,3-triazol-4-yl)-4-(isopropylamino)pyridin-2-yl)-1H-pyrazolo[3,4-b]pyridine-5-carbonitrile] | 1 | 1.8 | 290
7 | CC(=O)N1CC(n2cc(-c3cnc(-n4ccc5cc(C#N)cnc54)cc3NC(C)C)nn2)C1 [Example 162, 1-(5-(1-(1-acetylazetidin-3-yl)-1H-1,2,3-triazol-4-yl)-4-(isopropylamino)pyridin-2-yl)-1H-pyrrolo[2,3-b]pyridine-5-carbonitrile, TFA] | 4 | 17.1 | 440
8 | CC(C)Nc1cc(-n2ccc3cc(C#N)cnc32)ncc1-c1cn(CCN2CCOCC2)nn1 [Example 163, 1-(4-(isopropylamino)-5-(1-(2-morpholinoethyl)-1H-1,2,3-triazol-4-yl)pyridin-2-yl)-1H-pyrrolo[2,3-b]pyridine-5-carbonitrile, 2TFA] | 2 | 19.5 | 600
9 | CC(=O)N1CC[C@H](n2cc(-c3cnc(-n4ncc5cc(C#N)cnc54)cc3NC(C)C)nn2)[C@H](O)C1 [Example 178, 1-(5-(1-((3R,4S)-1-acetyl-3-hydroxypiperidin-4-yl)-1H-1,2,3-triazol-4-yl)-4-(isopropylamino)pyridin-2-yl)-1H-pyrazolo[3,4-b]pyridine-5-carbonitrile] | 6 | < 1.5 | 530
10 | CC(C)Nc1cc(-n2ncc3cc(C#N)cnc32)ncc1-c1cn([C@H]2CCN(C(=O)C(C)(C)C)C[C@H]2O)nn1 [Example 179, 1-(5-(1-((3R,4S)-3-hydroxy-1-pivaloylpiperidin-4-yl)-1H-1,2,3-triazol-4-yl)-4-(isopropylamino)pyridin-2-yl)-1H-pyrazolo[3,4-b]pyridine-5-carbonitrile] | 7 | 1.8 | 680
11 | CCOC(=O)N1CC[C@H](n2cc(-c3cnc(-n4ncc5cc(C#N)cnc54)cc3NC(C)C)nn2)[C@H](O)C1 [Example 180, (3R,4S)-ethyl 4-(4-(6-(5-cyano-1H-pyrazolo[3,4-b]pyridin-1-yl)-4-(isopropylamino)pyridin-3-yl)-1H-1,2,3-triazol-1-yl)-3-hydroxypiperidine-1-carboxylate] | 11 | 3.2 | 2140

Further compounds by falling IC50 [1], results first:

Row | IC50 [1] [nM] | Papp at 2 h, 3 µM [2] [×10⁻⁶ cm/s] | EC50 [3] [nM] | Compound
12 | 6 | < 1.5 | 280 | CC(=O)N1CCC(n2cc(-c3cnc(-n4ncc5cc(C#N)cnc54)cc3NC(C)C)nn2)C1 (stereo not drawn) [Example 157, 1-(5-(1-(1-acetylpyrrolidin-3-yl)-1H-1,2,3-triazol-4-yl)-4-(isopropylamino)pyridin-2-yl)-1H-pyrazolo[3,4-b]pyridine-5-carbonitrile]
13 | 4 | < 1.5 | 150 | CC(=O)N1CC(n2cc(-c3cnc(-n4ncc5cc(C#N)cnc54)cc3NC(C)C)nn2)C1 [Example 154, 1-(5-(1-(1-acetylazetidin-3-yl)-1H-1,2,3-triazol-4-yl)-4-(isopropylamino)pyridin-2-yl)-1H-pyrazolo[3,4-b]pyridine-5-carbonitrile]
14 | 4 | < 1.5 | 130 | CC(=O)N1CCC(n2cc(-c3cnc(-n4ncc5cc(C#N)cnc54)cc3NC(C)C)nn2)CC1 [Example 159, 1-(5-(1-(1-acetylpiperidin-4-yl)-1H-1,2,3-triazol-4-yl)-4-(isopropylamino)pyridin-2-yl)-1H-pyrazolo[3,4-b]pyridine-5-carbonitrile]
15 | 3 | < 1.5 | 360 | [2H]C([2H])([2H])C(=O)N1CC(n2cc(-c3cnc(-n4ncc5cc(C#N)cnc54)cc3NC(C)C)nn2)C1 [Example 140, 1-(5-(1-(1-trideuteroacetylazetidin-3-yl)-1H-1,2,3-triazol-4-yl)-4-(isopropylamino)pyridin-2-yl)-1H-pyrazolo[3,4-b]pyridine-5-carbonitrile]
16 | 2 | 2.9 | 290 | CC(C)Nc1cc(-n2ncc3cc(C#N)cnc32)ncc1-c1cn(CCCCO)nn1 [Example 124, 1-(5-(1-(4-hydroxybutyl)-1H-1,2,3-triazol-4-yl)-4-(isopropylamino)pyridin-2-yl)-1H-pyrazolo[3,4-b]pyridine-5-carbonitrile]
17 | 2 | 9.1 | 450 | CC(C)Nc1cc(-n2ncc3cc(C#N)cnc32)ncc1-c1cn(C2CN(C(C)C)C2)nn1 [Example 150, 1-(4-(isopropylamino)-5-(1-(1-isopropylazetidin-3-yl)-1H-1,2,3-triazol-4-yl)pyridin-2-yl)-1H-pyrazolo[3,4-b]pyridine-5-carbonitrile]
18 | 2 | 4.5 | 430 | CC(=O)Cn1cc(-c2cnc(-n3ncc4cc(C#N)cnc43)cc2NC(C)C)nn1 [Example 170, 1-(4-(isopropylamino)-5-(1-(2-oxopropyl)-1H-1,2,3-triazol-4-yl)pyridin-2-yl)-1H-pyrazolo[3,4-b]pyridine-5-carbonitrile]
19 | 1 | 5 | 340 | CC(C)Nc1cc(-n2ncc3cc(C#N)cnc32)ncc1-c1cn(CCC(C)(C)O)nn1 [Example 128, 1-(5-(1-(3-hydroxy-3-methylbutyl)-1H-1,2,3-triazol-4-yl)-4-(isopropylamino)pyridin-2-yl)-1H-pyrazolo[3,4-b]pyridine-5-carbonitrile]
